Experimental data published in ChEMBL document CHEMBL4715857, “Structure-based linker exploration: Discovery of 1-ethyl-1H-indole analogs as novel ATX inhibitors” (Bioorg Med Chem, 2020).

Target: Autotaxin (Homo sapiens, UniProt Q13822)
Assay: Inhibition of glycosylated human ATX using FS-3 as substrate preincubated for 45 mins followed by substrate addition and measured every 1 min for 30 mins by fluorescence microplate reader assay

Row | Compound | IC50 [nM]
1 | CCn1cc(C(=O)N/N=C/c2coc3ccccc3c2=O)c2cc(-c3nc(CN4CCOCC4)cs3)ccc21 | 7240
2 | CCn1cc(NC(=O)NCc2ccc(F)cc2)c2cc(NC(=O)c3ccc(CN4CCC(O)CC4)cc3)ccc21 | 2.3
3 | CCn1cc(C(=O)N/N=C/c2c(O)ccc3ccccc23)c2cc(-c3nc(CN4CCOCC4)cs3)ccc21 | > 10000
4 | CCn1cc(C(=O)N/N=C/c2ccc(F)cc2Cl)c2cc(-c3nc(CN4CCOCC4)cs3)ccc21 | 6370
5 | CCn1cc(C(=O)O)c2cc(-c3nc(CN4CCC[C@H]4CO)cs3)ccc21 | 590
6 | CCn1cc(C(=O)N/N=C/c2ccc(F)cc2F)c2cc(-c3nc(CN4CCOCC4)cs3)ccc21 | 4050
7 | CCn1cc(C(=O)N/N=C(\C)c2ccc(OC)cc2)c2cc(-c3nc(CN4CCOCC4)cs3)ccc21 | > 10000
8 | CCn1cc(NC(=O)NCc2ccc(F)cc2)c2cc(-c3nc(CN(CCO)CCO)cs3)ccc21 | 234
9 | CCn1cc(NC(=O)NCc2ccc(F)cc2)c2cc(-c3nc(CN4CCC(O)CC4)cs3)ccc21 | 313
10 | CCn1cc(NC(=O)NCc2ccc(F)cc2)c2cc(NC(=O)c3ccc(CN4CCN(CCO)CC4)cc3)ccc21 | 101
11 | CCn1cc(C(=O)O)c2cc(-c3nc(CN4CCN(CCO)CC4)cs3)ccc21 | 410
12 | CCn1cc(NC(=O)NCc2ccc(F)cc2)c2cc(NC(=O)c3ccc(CN4CCCCC4)cc3)ccc21 | 530
13 | CCn1cc(NC(=O)NCc2ccc(F)cc2)c2cc(NC(=O)c3ccc(CN4CCCC4)cc3)ccc21 | 280
14 | CCn1cc(C(=O)N/N=C/c2ccc(C(F)(F)F)cc2)c2cc(-c3nc(CN4CCOCC4)cs3)ccc21 | 6140
15 | CCn1cc(NC(=O)NCc2ccc(F)cc2)c2cc(NC(=O)c3ccc(CN4CCC(C)CC4)cc3)ccc21 | 370
16 | CCn1cc(C(=O)O)c2cc(-c3nc(CN4CCCC4)cs3)ccc21 | 930

Row | Compound | IC50 [nM]
17 | CCn1cc(C(=O)N/N=C2\CCc3cc(Br)ccc32)c2cc(-c3nc(CN4CCOCC4)cs3)ccc21 | > 10000
18 | CCn1cc(NC(=O)NCc2ccc(F)cc2)c2cc(NC(=O)c3ccc(CN4CCOCC4)cc3)ccc21 | 110
19 | CCn1cc(NC(=O)NCc2ccc(Cl)cc2)c2cc(-c3nc(CN4CCN(CCO)CC4)cs3)ccc21 | 156
20 | CCn1cc(NC(=O)NCc2ccc(Cl)cc2)c2cc(NC(=O)c3ccc(CN4CCCC4)cc3)ccc21 | 351
21 | CCn1cc(C(=O)N/N=C2\CCc3cc(OC)c(OC)cc32)c2cc(-c3nc(CN4CCOCC4)cs3)ccc21 | 8270
22 | CCn1cc(NC(=O)NCc2ccc(Cl)cc2)c2cc(NC(=O)c3ccc(CN4CCOCC4)cc3)ccc21 | 107
23 | CCn1cc(NC(=O)NCc2ccc(F)cc2)c2cc(NC(=O)c3ccc(CN4CCN(C)CC4)cc3)ccc21 | 190
24 | CCn1cc(C(=O)O)c2cc(-c3nc(CN(CO)CO)cs3)ccc21 | 710
25 | CCn1cc(NC(=O)NCc2ccc(F)cc2)c2cc(-c3nc(CN4CCOCC4)cs3)ccc21 | 252
26 | CCn1cc(C(=O)N/N=C/c2ccc(F)c(F)c2)c2cc(-c3nc(CN4CCOCC4)cs3)ccc21 | 3490
27 | CCn1cc(NC(=O)NCc2ccc(Cl)cc2)c2cc(NC(=O)c3ccc(CN4CCC(O)CC4)cc3)ccc21 | 13.1
28 | CCn1cc(C(=O)O)c2cc(-c3nc(CN4CCC(O)CC4)cs3)ccc21 | 680
29 | CCn1cc(C(=O)O)c2cc(-c3nc(CN4CCOCC4)cs3)ccc21 | 820
30 | CCn1cc(C(=O)O)c2cc(-c3nc(CN4CCN(C)CC4)cs3)ccc21 | 1290
31 | CCn1cc(C(=O)N/N=C(\C)c2ccc(F)cc2F)c2cc(-c3nc(CN4CCOCC4)cs3)ccc21 | 9230
32 | CCn1cc(NC(=O)NCc2ccc(Cl)cc2)c2cc(-c3nc(CN4CCN(C)CC4)cs3)ccc21 | 199
